Values joined by “and” are separate entries in the source; they are usually repeats but may differ in a detail not shown here. Equal values may be shown once. ± gives the uncertainty stated by the source.
Assays:
[1] = xn = mol fraction of the nth substance listed; details: 101 kPa

[Cl-].[Cl-].[Cl-].[Cl-].[Sn+4]
101 kPa
Details | viscosity
293.15 K | 0.951 ± 0.016 mPa·s and 0.927 ± 0.044 mPa·s
298.15 K | 0.919 ± 0.024 mPa·s and 0.8145 ± 0.021 mPa·s
313.15 K | 0.715 ± 0.012 mPa·s and 0.758 ± 0.038 mPa·s
323.15 K | 0.668 ± 0.018 mPa·s and 0.683 ± 0.028 mPa·s and 0.683 ± 0.007 mPa·s

CC(C)Cc1ccccc1
viscosity [mPa·s]
Details | 293.15 K | 303.15 K | 313.15 K | 323.15 K
101 kPa | – | 0.899 ± 0.012 | 0.771 ± 0.011 | –
102 kPa | 1.02 ± 0.02 | 0.883 ± 0.021 | 0.769 ± 0.021 | 0.68 ± 0.021

CN(c1ccccc1)c1ccccc1
101 kPa
Details | viscosity
293.15 K | 7.25 ± 0.08 mPa·s
293.25 K | 7.22 ± 0.08 mPa·s
303.15 K | 5.13 ± 0.06 mPa·s
313.15 K | 3.84 ± 0.04 mPa·s and 3.835 ± 0.037 mPa·s

CCCC[N+]1(C)CCCC1.O=S(=O)([N-]S(=O)(=O)C(F)(F)F)C(F)(F)F
viscosity
Details | 293.15 K | 295.2 K | 298.15 K | 303.15 K | 308.15 K | 313.15 K | 318.15 K
100 kPa | 97.99 ± 3.1 mPa·s and 90.17 ± 2.1 mPa·s | – | 74.9 ± 1.7 mPa·s and 70.12 ± 1.5 mPa·s | 61.58 ± 1.9 mPa·s and 56.19 ± 1.2 mPa·s | 50.81 ± 1.6 mPa·s and 45.8 ± 0.97 mPa·s | 37.99 ± 0.8 mPa·s | 34.58 ± 1.1 mPa·s
101 kPa | 86.03 ± 3.6 mPa·s and 86.05 ± 1.3 mPa·s | – | 68.14 ± 2.8 mPa·s and 68.16 ± 0.81 mPa·s and 70.5 ± 1.8 mPa·s | 54.03 ± 2.2 mPa·s and 54.05 ± 0.5 mPa·s | 44.37 ± 1.8 mPa·s and 44.38 ± 0.45 mPa·s | 42 ± 4.3 mPa·s and 35.75 ± 1.5 mPa·s and 35.76 ± 0.36 mPa·s | 29.71 ± 1.2 mPa·s and 29.72 ± 0.3 mPa·s
101.3 kPa | – | 80 ± 6.8 mPa·s | – | – | – | – | –

CCC(C)CC
101.33 kPa
Details | viscosity [mPa·s]
298 K | 0.288 ± 0.005
298.15 K | 0.2909 ± 0.0031

CC(C)CN
Details | viscosity [mPa·s]
298.15 K, 101 kPa | 0.563 ± 0.015

CC(O)C(=O)[O-].CN(C)C(=N)[NH+](C)C
101 kPa
Details | viscosity [mPa·s]
303.15 K | 13700 ± 1300
308.15 K | 7300 ± 640
313.15 K | 3960 ± 320
318.15 K | 2260 ± 160
323.15 K | 1370 ± 90

CCOS(=O)(=O)[O-].CC[n+]1ccn(C)c1
viscosity
Details | 298.15 K | 303.15 K | 308.15 K | 313.15 K | 318.15 K | 323.15 K
100 kPa | 96.87 ± 4.1 mPa·s and 95.9 ± 2.1 mPa·s | 76.51 ± 3.2 mPa·s and 75.7 ± 1.6 mPa·s | 61.6 ± 2.5 mPa·s | 61.6 ± 2.5 mPa·s | 50.5 ± 2.1 mPa·s | 35.03 ± 1.5 mPa·s
101 kPa | 95.9 ± 1.4 mPa·s and 95.5 ± 2.7 mPa·s | 75.63 ± 0.97 mPa·s and 75.4 ± 2 mPa·s | – | 49.45 ± 0.51 mPa·s | – | 34.24 ± 0.33 mPa·s

OCCCCO
viscosity
Details | 293.15 K | 298.15 K | 303.15 K | 308.15 K | 313.15 K | 318.15 K | 323.15 K
101 kPa | 96.5 ± 13 mPa·s and 96.8 ± 2.2 mPa·s | 72.8 ± 5.7 mPa·s and 72.1 ± 1.5 mPa·s and 75.6 ± 0.71 mPa·s | 54.3 ± 0.98 mPa·s and 57.2 ± 1.2 mPa·s and 50.53 ± 0.25 mPa·s | – | 32.8 ± 1.6 mPa·s and 35.4 ± 0.7 mPa·s and 37.03 ± 0.24 mPa·s | – | –
101.3 kPa | 92.14 ± 4.1 mPa·s | 71.91 ± 3 mPa·s | – | 45.04 ± 1.8 mPa·s | 36.26 ± 1.5 mPa·s | 29.38 ± 1.2 mPa·s | 24.18 ± 0.99 mPa·s
101.33 kPa | 91.27 ± 3.8 mPa·s | 72.83 ± 3 mPa·s | 56.05 ± 2.3 mPa·s | 45.06 ± 1.8 mPa·s | 36.02 ± 1.5 mPa·s | 30.61 ± 1.2 mPa·s | –

CCC[NH3+].O=[N+]([O-])[O-]
Details | viscosity [mPa·s]
298 K, 101 kPa | 72.61 ± 2.6

OCCC1CCCCN1 (centres undefined)
Details | viscosity [mPa·s]
313.15 K, 101.3 kPa | 77.17 ± 1.5

CC=CC(=O)OCC
101 kPa
Details | viscosity [mPa·s]
293.15 K | 0.8184 ± 0.0094
298.15 K | 0.7576 ± 0.0088
303.15 K | 0.7053 ± 0.0082
313.15 K | 0.6154 ± 0.0072
323.15 K | 0.5471 ± 0.0065

Cc1cc(C)cc(C)c1
Details | viscosity
293.15 K, 101 kPa | 0.692 ± 0.011 mPa·s and 0.721 ± 0.014 mPa·s
293.15 K, 101.33 kPa | 0.692 ± 0.007 mPa·s
293.15 K, 102 kPa | 0.699 ± 0.021 mPa·s
295.01 K, 101.33 kPa | 0.6861 ± 0.0098 mPa·s
298.15 K, 101 kPa | 0.6025 ± 0.01 mPa·s and 0.6518 ± 0.017 mPa·s
298.15 K, 101.3 kPa | 0.656 ± 0.035 mPa·s and 0.671 ± 0.007 mPa·s
298.15 K, 101.33 kPa | 0.6 ± 0.008 mPa·s and 0.658 ± 0.005 mPa·s
298.38 K, 100 kPa | 0.6595 ± 0.0095 mPa·s
298.38 K, 101.33 kPa | 0.6595 ± 0.0096 mPa·s
302.82 K, 101.33 kPa | 0.6227 ± 0.0091 mPa·s
303 K, 101 kPa | 0.6123 ± 0.0051 mPa·s and 0.6124 ± 0.0051 mPa·s
303.15 K, 101 kPa | 0.633 ± 0.017 mPa·s and 0.612 ± 0.011 mPa·s
303.15 K, 101.3 kPa | 0.616 ± 0.033 mPa·s and 0.624 ± 0.007 mPa·s
303.15 K, 101.33 kPa | 0.564 ± 0.008 mPa·s
303.15 K, 102 kPa | 0.606 ± 0.021 mPa·s
307.35 K, 101.33 kPa | 0.584 ± 0.0099 mPa·s
307.4 K, 101.33 kPa | 0.309 ± 0.003 mPa·s
307.78 K, 101.33 kPa | 0.5879 ± 0.0087 mPa·s
308.15 K, 101.3 kPa | 0.581 ± 0.031 mPa·s and 0.589 ± 0.007 mPa·s
308.15 K, 101.33 kPa | 0.5482 ± 0.0074 mPa·s and 0.585 ± 0.005 mPa·s
308.5 K, 101 kPa | 0.597 ± 0.016 mPa·s
312.69 K, 100 kPa | 0.5561 ± 0.0084 mPa·s
312.69 K, 101.33 kPa | 0.5561 ± 0.0084 mPa·s
313 K, 101 kPa | 0.5482 ± 0.0046 mPa·s and 0.5481 ± 0.0046 mPa·s
313.15 K, 102 kPa | 0.534 ± 0.021 mPa·s
317.53 K, 101.33 kPa | 0.5269 ± 0.0081 mPa·s
318.15 K, 101 kPa | 0.3678 ± 0.11 mPa·s and 0.52 ± 0.011 mPa·s
322.26 K, 101.33 kPa | 0.5017 ± 0.0078 mPa·s
323 K, 101 kPa | 0.491 ± 0.0042 mPa·s and 0.4898 ± 0.0042 mPa·s
323.15 K, 101 kPa | 0.495 ± 0.011 mPa·s
323.15 K, 102 kPa | 0.476 ± 0.021 mPa·s

O=C1CCCN1 + CCCCO
Details | viscosity [mPa·s]
[1], 293.15 K, x1 = 0.8554 | 10.75 ± 0.79

O=S=O + Cc1ccccc1
[1], 298.15 K
Details | viscosity [mPa·s]
x1 = 0.0185 | 0.5449 ± 0.014
x1 = 0.0455 | 0.5339 ± 0.014
x1 = 0.104 | 0.5121 ± 0.013
x1 = 0.1897 | 0.4881 ± 0.013

O=P(O)(O)OP(=O)(O)O + O
viscosity, [1]
Details | 313 K | 323 K
x1 = 0.009 | 0.95 ± 0.03 mPa·s and 0.8 ± 0.02 mPa·s | –
x1 = 0.015 | 1.49 ± 0.04 mPa·s and 1.2 ± 0.03 mPa·s | –
x1 = 0.02 | 1.75 ± 0.05 mPa·s | 1.39 ± 0.04 mPa·s
x1 = 0.026 | 2.86 ± 0.08 mPa·s | 2.38 ± 0.07 mPa·s
x1 = 0.03 | 4.79 ± 0.13 mPa·s and 3.85 ± 0.11 mPa·s | –
x1 = 0.0306 | 3.76 ± 0.11 mPa·s | 2.03 ± 0.06 mPa·s
x1 = 0.04 | 5.82 ± 0.16 mPa·s and 4.7 ± 0.13 mPa·s | –
x1 = 0.045 | 7.65 ± 0.21 mPa·s | 6.05 ± 0.17 mPa·s
x1 = 0.051 | 9.8 ± 0.27 mPa·s and 6.88 ± 0.19 mPa·s | –
x1 = 0.055 | 10.9 ± 0.3 mPa·s and 8.82 ± 0.25 mPa·s | –
x1 = 0.062 | 15.6 ± 0.44 mPa·s | 12.16 ± 0.34 mPa·s

Cc1cc(C)cc(C)c1 + ClC(Cl)(Cl)Cl
[1], 298.15 K
Details | viscosity [mPa·s]
x1 = 0.1 | 0.8579 ± 0.011
x1 = 0.2 | 0.8194 ± 0.01
x1 = 0.3 | 0.7889 ± 0.0099
x1 = 0.4 | 0.7637 ± 0.0096
x1 = 0.5 | 0.7421 ± 0.0094
x1 = 0.6 | 0.7226 ± 0.0091
x1 = 0.7 | 0.7044 ± 0.0089
x1 = 0.8 | 0.6875 ± 0.0087
x1 = 0.9 | 0.672 ± 0.0085
